Assay results from ChEMBL document CHEMBL1201862, “PubChem BioAssay data set” (2004).
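Compound exposure: 48 hours, 5 concentrations, 96-well plates. The concentration for 50% growth inhibition is given as GI50.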 Calls of active or inactive are those of the source. Rule as the data show it: active = GI50 up to about 1.1 µM and inactive = higher.

Tests used:
Assay in all cases: inhibition of tumour cell growth, NCI panel, 48 h
NCI-H226 = system: NCI-H226
HCC 2998 = system: HCC 2998
786-0 = system: 786-0
HCT-15 = system: HCT-15
SNB-75 = system: SNB-75
OVCAR-5 = system: OVCAR-5
RXF 393 = system: RXF 393
SK-MEL-28 = system: SK-MEL-28
SK-MEL-5 = system: SK-MEL-5
TK-10 = system: TK-10
SF-295 = system: SF-295
Hs-578T = system: Hs-578T
OVCAR-3 = system: OVCAR-3
PC-3 = system: PC-3
EKVX = system: EKVX
RPMI-8226 = system: RPMI-8226
UO-31 = system: UO-31
NCI/ADR-RES = system: NCI/ADR-RES
NCI-H460 = system: NCI-H460
MCF7 = system: MCF7

Compound | GI50 (NCI-H226) | GI50 (HCC 2998) | GI50 (786-0) | GI50 (HCT-15) [µM] | GI50 (SNB-75) | GI50 (OVCAR-5) | GI50 (RXF 393) | GI50 (SK-MEL-28) | GI50 (SK-MEL-5) | GI50 (TK-10) | GI50 (SF-295) | GI50 (Hs-578T) | GI50 (OVCAR-3) | GI50 (PC-3) | GI50 (EKVX) | GI50 (RPMI-8226) | GI50 (UO-31) | GI50 (NCI/ADR-RES) | GI50 (NCI-H460) | GI50 (MCF7)
CC(C)CN(CC#N)CC(C)C | > 100 µM (inactive) | > 100 µM (inactive) | > 100 µM (inactive) | > 100 | > 100 µM (inactive) | > 100 µM (inactive) | > 100 µM (inactive) | > 100 µM (inactive) | > 100 µM (inactive) | > 100 µM (inactive) | > 100 µM (inactive) | > 100 µM (inactive) | > 100 µM (inactive) | > 100 µM (inactive) | > 100 µM (inactive) | 48.9 µM (inactive) | > 100 µM (inactive) | > 100 µM (inactive) | > 100 µM (inactive) | > 100 µM (inactive)
Clc1ccc2c(SCC3CO3)c3ccccc3nc2c1 (stereo not given) | 22.9 µM (inactive) | 4.81 µM (inactive) | 1.81 µM (inactive) | 1.68 | 9.55 µM (inactive) | 4.36 µM (inactive) | 2.66 µM (inactive) | 2.88 µM (inactive) | 4.84 µM (inactive) | 1.74 µM (inactive) | 16.5 µM (inactive) | 2.72 µM (inactive) | 1.73 µM (inactive) | 2.65 µM (inactive) | 4.9 µM (inactive) | 2.42 µM (inactive) | 1.76 µM (inactive) | 2.43 µM (inactive) | 4.27 µM (inactive) | 1.47 µM (inactive)
Cc1cc2c(cc1Cl)SC(NNc1ccc([N+](=O)[O-])cc1)=NS2(=O)=O | > 10 µM (inactive) | > 10 µM (inactive) | > 10 µM (inactive) | > 10 | > 10 µM (inactive) | > 10 µM (inactive) | > 10 µM (inactive) | > 10 µM (inactive) | > 10 µM (inactive) | > 10 µM (inactive) | > 10 µM (inactive) | > 10 µM (inactive) | > 10 µM (inactive) | > 10 µM (inactive) | > 10 µM (inactive) | > 10 µM (inactive) | > 10 µM (inactive) | > 10 µM (inactive) | > 10 µM (inactive) | > 10 µM (inactive)
NCCCCC(N)C(=O)NCCNc1ccc(NCCNC(=O)C(N)CCCCN)c2c1C(=O)c1ccccc1C2=O (stereo not given) | > 21.7 µM (inactive) | 16.4 µM (inactive) | 7.41 µM (inactive) | > 83.8 | 43.2 µM (inactive) | > 74.3 µM (inactive) | 9.86 µM (inactive) | > 100 µM (inactive) | > 100 µM (inactive) | > 94.4 µM (inactive) | > 100 µM (inactive) | 8.38 µM (inactive) | > 100 µM (inactive) | 81.1 µM (inactive) | > 100 µM (inactive) | 31.8 µM (inactive) | 32.3 µM (inactive) | 28.2 µM (inactive) | 9.06 µM (inactive) | > 100 µM (inactive)
O=C1C=C/C(=N/c2ccccc2)c2ccccc21 | 11.4 µM (inactive) | 10.2 µM (inactive) | 12.3 µM (inactive) | 9.42 | 6.53 µM (inactive) | 17.9 µM (inactive) | 10.8 µM (inactive) | 20.3 µM (inactive) | 1.31 µM (inactive) | 16.9 µM (inactive) | 7.4 µM (inactive) | 3.74 µM (inactive) | 1.89 µM (inactive) | 10.5 µM (inactive) | 2.06 µM (inactive) | 12.8 µM (inactive) | 10.3 µM (inactive) | 15.1 µM (inactive) | 3.32 µM (inactive) | 5.74 µM (inactive)
Cc1c2cccc-2c(OCCO)cc2c3ccccc3n(C)c12 | 5.58 µM (inactive) | 3.64 µM (inactive) | 3.37 µM (inactive) | 6.11 | 5.28 µM (inactive) | 4.83 µM (inactive) | 5.57 µM (inactive) | 3.73 µM (inactive) | 2.12 µM (inactive) | 10.7 µM (inactive) | 3.67 µM (inactive) | 2.6 µM (inactive) | 1.46 µM (inactive) | 3.18 µM (inactive) | 2.63 µM (inactive) | 2.81 µM (inactive) | 2.57 µM (inactive) | 30.8 µM (inactive) | 3.73 µM (inactive) | 3.65 µM (inactive)
CN(/N=C\c1ccc2ccccc2c1)C1=NCCCCN1 | 35.3 µM (inactive) | 14.5 µM (inactive) | 15.8 µM (inactive) | 30.6 | 10.4 µM (inactive) | 36.5 µM (inactive) | 12.5 µM (inactive) | 15.2 µM (inactive) | 13.8 µM (inactive) | 20.2 µM (inactive) | 15.7 µM (inactive) | 20.6 µM (inactive) | 36.5 µM (inactive) | 16.7 µM (inactive) | 19.7 µM (inactive) | 19.8 µM (inactive) | 13.8 µM (inactive) | 26.7 µM (inactive) | 17.2 µM (inactive) | 18.2 µM (inactive)
O=C1/C(=C\c2ccc(Cl)cc2Cl)Sc2scc(-c3cccc([N+](=O)[O-])c3)[n+]21 | 13.5 µM (inactive) | 7.64 µM (inactive) | 3.39 µM (inactive) | 1.81 | 19.9 µM (inactive) | 15.5 µM (inactive) | 6.25 µM (inactive) | 14.6 µM (inactive) | 2.09 µM (inactive) | 4.07 µM (inactive) | 24.9 µM (inactive) | 24.7 µM (inactive) | 8.13 µM (inactive) | 15.6 µM (inactive) | 7.57 µM (inactive) | 4.48 µM (inactive) | 3.47 µM (inactive) | 8.75 µM (inactive) | 13.1 µM (inactive) | 3.98 µM (inactive)
O=c1oc2ccc(Cl)cc2cc1-c1cn2ccccc2n1 | 20.9 µM (inactive) | > 100 µM (inactive) | 3.24 µM (inactive) | > 100 | 15.3 µM (inactive) | 57.5 µM (inactive) | 13.7 µM (inactive) | 96.8 µM (inactive) | > 100 µM (inactive) | 14.8 µM (inactive) | 8.38 µM (inactive) | 7.83 µM (inactive) | 33.7 µM (inactive) | > 72.9 µM (inactive) | 28.8 µM (inactive) | 80.9 µM (inactive) | 4.72 µM (inactive) | 17.9 µM (inactive) | 14.6 µM (inactive) | 24.5 µM (inactive)
O=C(Oc1cccc2cccnc12)c1cc2cc(CCl)ccc2oc1=O | 75.9 µM (inactive) | 20.3 µM (inactive) | 20.7 µM (inactive) | 2.77 | 56 µM (inactive) | 31.5 µM (inactive) | 17.3 µM (inactive) | 30.1 µM (inactive) | 21.9 µM (inactive) | 25.5 µM (inactive) | 37.4 µM (inactive) | 46.2 µM (inactive) | 3.68 µM (inactive) | 12.7 µM (inactive) | 2.4 µM (inactive) | 4.94 µM (inactive) | 9.91 µM (inactive) | 4.18 µM (inactive) | 10.9 µM (inactive) | 3.14 µM (inactive)
CCOC(=O)c1cn2c(ccc3sc4ccccc4c(=O)c32)n1 | > 100 µM (inactive) | > 100 µM (inactive) | > 100 µM (inactive) | > 100 | > 100 µM (inactive) | > 100 µM (inactive) | > 100 µM (inactive) | > 100 µM (inactive) | > 100 µM (inactive) | > 100 µM (inactive) | > 100 µM (inactive) | > 100 µM (inactive) | > 100 µM (inactive) | > 100 µM (inactive) | > 100 µM (inactive) | > 100 µM (inactive) | > 100 µM (inactive) | > 100 µM (inactive) | > 100 µM (inactive) | 84.3 µM (inactive)
CC(=O)O[C@H]1C(=O)[C@@]2(C)[C@H]([C@H](OC(=O)c3ccccc3)[C@]3(O)C[C@H](OC(=O)[C@H](O)[C@@H](NC(=O)c4ccccc4)c4ccccc4C)C(C)=C1C3(C)C)[C@]1(OC(C)=O)CO[C@@H]1C[C@@H]2O | 1.71 µM (inactive) | 0.782 µM (active) | 1.64 µM (inactive) | 6.38 | 0.767 µM (active) | 0.843 µM (active) | 0.525 µM (active) | 1.55 µM (inactive) | 0.406 µM (active) | 2.71 µM (inactive) | 1.16 µM (inactive) | 0.222 µM (active) | 0.324 µM (active) | 0.258 µM (active) | 7.4 µM (inactive) | 0.0904 µM (active) | 6.46 µM (inactive) | > 25 µM (inactive) | 0.811 µM (active) | 0.113 µM (active)
Cc1c2cc[n+](C)cc2c(C)c2c1oc1ccccc12 | 2.19 µM (inactive) | 2.75 µM (inactive) | 1.17 µM (inactive) | > 87.3 | 1.98 µM (inactive) | 15.6 µM (inactive) | 15.2 µM (inactive) | 6.85 µM (inactive) | 3.41 µM (inactive) | 31.4 µM (inactive) | 1.69 µM (inactive) | 0.54 µM (active) | 2.65 µM (inactive) | 6.38 µM (inactive) | 5.5 µM (inactive) | 4.2 µM (inactive) | 68.7 µM (inactive) | > 100 µM (inactive) | 3.24 µM (inactive) | 6.37 µM (inactive)
O=c1c(C(c2cc(OCc3ccccc3)cc(OCc3ccccc3)c2)c2c(O)oc3ccccc3c2=O)c(O)oc2ccccc12 | 9.64 µM (inactive) | 3.91 µM (inactive) | 8.63 µM (inactive) | 3.17 | 3.37 µM (inactive) | 11.8 µM (inactive) | 22.4 µM (inactive) | 12.7 µM (inactive) | 6.59 µM (inactive) | 11.5 µM (inactive) | 5.42 µM (inactive) | 5.96 µM (inactive) | 13.4 µM (inactive) | 4 µM (inactive) | 9.04 µM (inactive) | 1.66 µM (inactive) | 4.85 µM (inactive) | 17.6 µM (inactive) | 3.45 µM (inactive) | 12.3 µM (inactive)
